# US11203615B2, “Cancer treatment drug” (NATIONAL UNIVERSITY CORPORATION HOKKAIDO UNIVERSITY, priority 2017, dated 2021)
# Residues, ends and D or L forms follow the SMILES beside them.
# Legend:
# C16orf74 protein dimer [1] = target: T1, C16orf74 protein dimer (Homo sapiens, UniProt Q96GX8); assay: Inhibition of dimer formation of C16orf74 protein in human pancreatic cancer cells and NHDFs (FIG. 3); type: cell-based; parameters: PK-1 and PK-9 (C16orf14 high expression) are compared to Panc1 and Miapaca2 (low expression); endogenous in cells; host or cells: PK-1, PK-9, Panc-1, Miapaca-2, NHDF
# Protocol: The same experiment as the above (3) was conducted by using the peptide RRRRRRRRRRR-GGG-MGLKMSCLKGFQMCV (SEQ ID NO: 4) (represented as 11R-C16orf74-DB in FIG. 3(a)), the peptide RRRRRRRRRRR-GGG-MGLKMSALKGFQMAV (SEQ ID NO: 7) (represented as 11R-C16orf74 C7A-C14A in FIG. 3(b)), and the peptide RRRRRRRRRRR-GGG-MGLKMAAAKGFQAAA (SEQ ID NO: 8) (represented as 11R-C16orf74-6-8A-13-15A in FIG. 3(c)) with different concentrations to examine inhibition of the dimer formation of C16orf74 protein. For the cells, four types of human pancreatic cancer cells (PK-1, PK-9, Panc-1, Miapaca-2) and normal human dermal fibroblasts (NHDFs) were used. The results are shown in FIGS. 3(a), 3(b), and 3(c), which are 24 hour WST assays in which PK-1 and PK-9 (C16orf14 high expression) are compared to Panc1 and Miapaca2 (low expression). A p-value of p<0.05 was obtained at 30 μM.
# [2] = system: Human pancreatic cancer cells (PK-9); assay: Tumor growth in nude mice with PK-9 cells transplanted on the back, intraperitoneal administration; type: in vivo, nude mouse; settings: i.p. five times per week, day 7 to day 35 after transplantation
# Protocol: Human pancreatic cancer cells (PK-9) were transplanted to the back of each nude mouse (Balb/cA Jcl nu/nu mice, female, distributor: CLEA Japan, Inc.). The peptide of the present invention RRRRRRRRRRR-GGG-MGLKMSCLKGFQMCV (SEQ ID NO: 4), the peptide RRRRRRRRRRR-GGG-MGLKMAAAKGFQAAA (SEQ ID NO: 8), or PBS was intraperitoneally administered five times per week from day 7 to day 35 after the transplantation. During this period, body weight and tumor volume of the animals were measured, and fluorescence images were taken. On day 35 after the transplantation, tumor was resected, and the weight was measured. […] The mean tumor weight was approximately 50 mg for the group with administration of the peptide of the present invention (represented as DB in FIG. 6), and, by contrast, approximately 100 mg to 110 mg for the other two groups.
# PK-9 cells = assay: Tumor growth in nude mice with subcutaneously injected PK-9 cells, peritumoral subcutaneous injection; type: in vivo; settings: 10 mg/kg/mouse s.c. near tumor five times per week, 3 weeks
# Protocol: PK-9 cells were injected into the back of each nude mouse (Balb/cA Jcl nu/nu mice, female, distributor: CLEA Japan, Inc.). Two weeks after the injection, the peptide of the present invention RRRRRRRRRRR-GGG-MGLKMSCLKGFQMCV (SEQ ID NO: 4), the peptide RRRRRRRRRRR-GGG-MGLKMAAAKGFQAAA (SEQ ID NO: 8), or PBS was injected into the subcutaneous tissue in the vicinity of tumor five times per week (10 mg/kg/mouse). The administration period was 3 weeks. At the end of the administration period, tumor was resected and the tumor weight was measured. […] The mean tumor weight of the group with administration of the peptide of the present invention (SEQ ID NO: 4) was approximately 250 mg (group 11R-DB in FIG. 8).
# [3] = system: PK-9 cells expressing luciferase (PK-9-td Tomato-luc2); assay: Tumor survival and nodulation in nude mice with peritoneally disseminated PK-9-td Tomato-luc2 cells; type: in vivo; settings: 1 mg/kg/mouse five times per week, day 0 to day 35; imaging days 3-35
# Protocol: PK-9 cells expressing luciferase (PK-9-td Tomato-luc2) were intraperitoneally injected into each nude mouse (Balb/cA Jcl nu/nu mice, female, distributor: CLEA Japan, Inc.). During a period from the day of the peritoneal dissemination to day 35, the peptide of the present invention RRRRRRRRRRR-GGG-MGLKMSCLKGFQMCV (SEQ ID NO: 4), the peptide RRRRRRRRRRR-GGG-MGLKMAAAKGFQAAA (SEQ ID NO: 8), or PBS was injected into the subcutaneous tissue in the vicinity of tumor five times per week (1 mg/kg/mouse). On days 3, 7, 14, 21, 28, and 35 after the peritoneal dissemination, tumor was imaged. The number of nodules was counted at the end of the peptide administration period.
# C16orf74 protein dimer [4] = target: T1, C16orf74 protein dimer; assay: Inhibition of dimer formation of C16orf74 protein, pull-down assay in cotransfected HEK293T cells; type: cell-based; settings: 40 μM peptide, 24 hours
# Protocol: Pull-down assay was used for this verification. HEK293T cells were cotransfected with a vector to express a protein of Flag-tagged C16orf74 protein (pCAGGS-C16orf74-3×Flag) and a vector to express a protein of HA-tagged C16orf74 protein (pCAGGS-C16orf74-HA), and 24 hours thereafter a cell lysate was obtained and immunoprecipitation was carried out with agarose beads with an HA antibody attached thereto. The resulting immunoprecipitate was subjected to electrophoresis, and blotted with a Flag antibody. Experiment was conducted in three parallel systems. In the figure, MOCK represents a case that empty vectors of pCAGGS were provided with a Flag tag and an HA tag and HEK293T cells were cotransfected therewith. A band of the Flag-tagged C16orf74 protein was found at an intended level ([…]).
# HEK293T cells were transfected with pCAGGS-C16orf74-3×Flag and pCAGGS-C16orf74-HA, and cultured in the presence and absence of 40 μM of the peptide RRRRRRRRR-GGG-MGLKMSCLKGFQMCV (SEQ ID NO: 6) for 24 hours, and thereafter a band of the dimer was detected in the same manner as descried in (1).
# T1 sequence (Q96GX8 whole entry): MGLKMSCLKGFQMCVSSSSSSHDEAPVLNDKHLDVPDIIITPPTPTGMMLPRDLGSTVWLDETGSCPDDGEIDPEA
compound,measurement,setting,value
"CSCC[C@H](NC(=O)CNC(=O)CNC(=O)CNC(=O)[C@H](CCCNC(=N)N)NC(=O)[C@H](CCCNC(=N)N)NC(=O)[C@H](CCCNC(=N)N)NC(=O)[C@H](CCCNC(=N)N)NC(=O)[C@H](CCCNC(=N)N)NC(=O)[C@H](CCCNC(=N)N)NC(=O)[C@H](CCCNC(=N)N)NC(=O)[C@H](CCCNC(=N)N)NC(=O)[C@H](CCCNC(=N)N)NC(=O)[C@H](CCCNC(=N)N)NC(=O)[C@@H](N)CCCNC(=N)N)C(=O)NCC(=O)N[C@@H](CC(C)C)C(=O)N[C@@H](CCCCN)C(=O)N[C@@H](CCSC)C(=O)N[C@@H](CO)C(=O)N[C@@H](CS)C(=O)N[C@@H](CC(C)C)C(=O)N[C@@H](CCCCN)C(=O)NCC(=O)N[C@@H](Cc1ccccc1)C(=O)N[C@@H](CCC(N)=O)C(=O)N[C@@H](CCSC)C(=O)N[C@@H](CS)C(=O)N[C@H](C(=O)O)C(C)C [SEQ ID NO: 4, RRRRRRRRRRR-GGG-MGLKMSCLKGFQMCV] (H-RRRRRRRRRRRGGGMGLKMSCLKGFQMCV-OH)",inhibition at 40 µM,"C16orf74 protein dimer [1]; MIA PaCa-2, Miapaca2 cells",≥ 60%
same,inhibition at 40 µM,"C16orf74 protein dimer [1]; PANC-1, Panc1 cells",≥ 60%
same,inhibition at 30 µM,"C16orf74 protein dimer [1]; PK9, PK-9 cells",~60%
same,inhibition at 30 µM,C16orf74 protein dimer [1]; PK-1 cells,~60%
same,body weight of the animals,[2],exhibited a higher increasing tendency than the other administration groups
"RRRRRRRRRRR-GGG-MGLKMSALKGFQMAV (RRRRRRRRRRRGGGMGLKMSALKGFQMAV; fusion peptide) [SEQ ID NO: 7, control peptide, cysteine residues at 7th and 14th positions converted into alanine]",inhibition of the dimer formation,C16orf74 protein dimer [1]; PK-1 and PK-9 cells,the inhibition was weaker than in using 11R-C16orf74-DB
same,inhibition of the dimer formation,"C16orf74 protein dimer [1]; Panc1, Miapaca2 and NHDFs",Almost no inhibition of the dimer formation was found
"RRRRRRRRRRR-GGG-MGLKMAAAKGFQAAA (RRRRRRRRRRRGGGMGLKMAAAKGFQAAA; fusion peptide) [SEQ ID NO: 8, control peptide, cysteines 7 and 14 and their neighbouring residues converted into alanine]",inhibition of the dimer formation,"C16orf74 protein dimer [1]; any of the cells (PK-1, PK-9, Panc-1, Miapaca-2, NHDFs)",no inhibition of the dimer formation was found
same,change over time in tumor fluorescence intensity,[2],exhibited increase in fluorescence intensity
same,course of tumor volume,PK-9 cells,the tumor volume increased
same,survival of tumor cells (tumor imaging),[3],The survival of tumor cells was not suppressed
"RRRRRRRRR-GGG-MGLKMSCLKGFQMCV (RRRRRRRRRGGGMGLKMSCLKGFQMCV; fusion peptide) [SEQ ID NO: 6, C16orf74 N-terminal 15 amino acids bonded to 9-arginine signal via a GGG tag]",inhibition of dimer formation of C16orf74 protein (band of the dimer),C16orf74 protein dimer [4],the dimer formation was inhibited
